Source: patent publication US20120115802A1, “Method for using ulipristal acetate with cytochrome isozyme modulators” (LABORATOIRE HRA PHARMA, priority 2010, published 2012)

Key:
[1] = Metabolism in liver microsomal preparations; format: in vitro ADME, mice, rats, rabbits, dogs, monkeys and humans; details: in vitro
Excerpt: Metabolism of ulipristal acetate was investigated in vitro in liver microsomal preparations from mice, rats, rabbits, dogs, monkeys and humans.

[2] = used within 72 hours of unprotected intercourse; cited from earlier work

CC(=O)O[C@]1(C(C)=O)CC[C@H]2[C@@H]3CCC4=CC(=O)CCC4=C3[C@@H](c3ccc(N(C)C)cc3)C[C@@]21C [ulipristal acetate, 17α-acetoxy-11β-[4-N,N-dimethylamino-phenyl)-19-norpregna-4,9-diene-3,20-dione]
Metabolites produced in liver microsomes across species ([1]; liver microsomes from mice, rats, rabbits, dogs, monkeys and humans, proportions varied between species): All species produced the same two major metabolites
Metabolite unique to humans ([1]; liver microsomes, humans compared with the other species): No metabolite was detected which was unique to humans
Efficacy for preventing pregnancy compared with levonorgestrel [2]: as efficacious as levonorgestrel
